Test results as given in patent US10501518B2 (priority 2013, dated 2019).
Read-outs that look alike come from different tables or passages of the source. Starred links: 1 amine or outer side, 2 acyl side, 3 side chain; linkers in the order of their positions; H or OH if unused. Non-standard residues stand in square brackets, D forms with d. Residues, ends and D or L forms follow the SMILES beside them. No end group written: not given here. *: point of attachment. NH(1S,2S-2-CONH2-cPent) = NC(=O)[C@H]1CCC[C@@H]1N*; β3hW = N[C@H](CC(=O)O)Cc1c[nH]c2ccccc12; X12 = O=C([C@H]1CCC[C@@H]1N[*:1])[*:2]; X13 = O=C([C@H]1CNC[C@@H]1N[*:1])[*:2]; β3hE = N[C@@H](CCC(=O)O)CC(=O)O; β3hF = N[C@H](CC(=O)O)Cc1ccccc1; β3hN = NC(=O)C[C@H](N)CC(=O)O; β3hK = NCCCC[C@H](N)CC(=O)O; β3hM = CSCC[C@H](N)CC(=O)O; β3hD = NC(CC(=O)O)CC(=O)O

How the values were obtained:
[1] = molecular target: T1, WT rat PTHR-1 (Rattus norvegicus, UniProt P25961); test: cAMP GloSensor dose-response in GR-35 cells expressing rat PTHR-1; format: cell-based; settings: Table 7; for Max: 12-16 minutes after ligand addition, mean ± SEM
T1 construct: expressed in transfected cells
T1 sequence (P25961 27-591): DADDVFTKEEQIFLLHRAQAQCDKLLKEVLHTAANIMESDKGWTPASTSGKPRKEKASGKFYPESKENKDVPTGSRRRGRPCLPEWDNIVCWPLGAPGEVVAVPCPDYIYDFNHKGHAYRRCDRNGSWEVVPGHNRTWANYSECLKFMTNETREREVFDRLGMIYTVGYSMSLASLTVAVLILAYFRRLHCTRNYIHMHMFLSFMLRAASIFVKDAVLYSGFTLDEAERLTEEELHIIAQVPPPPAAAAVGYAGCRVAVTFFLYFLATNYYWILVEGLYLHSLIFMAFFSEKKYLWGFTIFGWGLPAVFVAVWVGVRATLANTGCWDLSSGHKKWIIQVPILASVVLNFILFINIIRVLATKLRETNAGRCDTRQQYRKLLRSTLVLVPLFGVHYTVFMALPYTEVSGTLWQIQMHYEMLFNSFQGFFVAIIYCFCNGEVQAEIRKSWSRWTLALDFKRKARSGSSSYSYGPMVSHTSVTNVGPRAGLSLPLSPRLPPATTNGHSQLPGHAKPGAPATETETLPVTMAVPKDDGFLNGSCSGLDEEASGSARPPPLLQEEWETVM

[2] = molecular target: T2, RG form of rat PTHR-1 (Rattus norvegicus, UniProt P25961); test: Radio-ligand competition binding to RG form of rat PTHR-1; settings: Table 5; rat PTHR-1; mean ± SEM; read-out: RG -log (IC50) (converted)
T2 construct: expressed in transfected cells; host or cells: COS-7
T2 sequence (P25961 27-591): T1 sequence (P25961 27-591)
Source text: (§1) Data are means (±SEM) of n≥4 experiments, each performed in duplicate.

[3] = molecular target: T3, WT human PTHR-1 (Homo sapiens, UniProt Q03431); test: cAMP GloSensor dose-response in GP-2.3 cells expressing human PTHR-1; format: cell-based; settings: for cAMP (hPTHR-1) Max: Table 1, luminescence counts per second relative to PTH(1-34); for cAMP (hPTHR-1) Max / Max: 12-16 minutes after ligand addition; for Max: GP-2.3 cells, mean ± SEM
T3 construct: bioactivity of the resulting compound in full-length hPTHR-1 and a truncated version; expressed in transfected cells
T3 sequence (Q03431 27-593): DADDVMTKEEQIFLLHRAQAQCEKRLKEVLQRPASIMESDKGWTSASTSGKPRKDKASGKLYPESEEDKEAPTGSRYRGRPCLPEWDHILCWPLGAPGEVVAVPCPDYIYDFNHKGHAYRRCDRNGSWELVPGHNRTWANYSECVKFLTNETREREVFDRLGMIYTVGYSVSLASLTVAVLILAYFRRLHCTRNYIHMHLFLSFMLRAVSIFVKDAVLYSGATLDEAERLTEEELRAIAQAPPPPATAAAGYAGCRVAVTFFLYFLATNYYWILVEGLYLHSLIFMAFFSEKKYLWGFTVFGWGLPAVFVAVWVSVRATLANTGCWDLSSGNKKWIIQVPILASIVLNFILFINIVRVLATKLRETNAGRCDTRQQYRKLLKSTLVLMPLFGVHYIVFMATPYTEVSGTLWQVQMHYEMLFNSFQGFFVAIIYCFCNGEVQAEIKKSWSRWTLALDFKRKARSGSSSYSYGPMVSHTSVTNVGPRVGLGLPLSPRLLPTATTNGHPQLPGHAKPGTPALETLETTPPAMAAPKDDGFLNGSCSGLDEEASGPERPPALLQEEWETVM
Procedure, shortened: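 Confluent cells preloaded with 0.5 mM d-luciferin at room temperature until luminescence baseline stabilised (30 min), then given varying agonist concentrations. Luminescence time course recorded after α/β-peptide addition. Means ±SEM of n>4 experiments, each in duplicate.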

[4] = molecular target: T4, RG form of human PTHR-1 (Homo sapiens, UniProt Q03431); test: Radio-ligand competition binding to RG form of human PTHR-1 (COS-7 membranes, 125I-M-PTH(1-15) tracer, high affinity Gαs mutant)
T4 construct: expressed in transfected cells; host or cells: COS-7
T4 sequence (Q03431 27-593): T3 sequence (Q03431 27-593)
Source text: as §1

[5] = molecular target: T5, R^0 form of human PTHR-1 (Homo sapiens, UniProt Q03431); test: Radio-ligand competition binding to R^0 form of human PTHR-1 (COS-7 membranes, 125I-PTH(1-34) tracer, GTPγS)
T5 construct: expressed in transfected cells; host or cells: COS-7
T5 sequence (Q03431 27-593): T3 sequence (Q03431 27-593)
Source text: as §1

[6] = molecular target: T6, R^0 form of rat PTHR-1 (Rattus norvegicus, UniProt P25961); test: Radio-ligand competition binding to R^0 form of rat PTHR-1; settings: Table 5; ratio of R^0 to RG IC50, rat PTHR-1
T6 construct: expressed in transfected cells; host or cells: COS-7
T6 sequence (P25961 27-591): T1 sequence (P25961 27-591)
Source text: as §1

[7] = Calcemic response in mice after subcutaneous injection; format: in vivo; settings: 20 nmol/kg
Description: Compound concentrations were determined by submitting plasma to a cAMP GloSensor assay, quantification of luminescence readout, and conversion to peptide concentration via standard curve. […] See also FIGS. 12A, 12B and 12C.
Mice (C57BL/6, male, age 9-12 weeks) were treated in accordance with the ethical guidelines adopted by Massachusetts General Hospital. […] Blood was withdrawn just prior to injection (t=0) or at times thereafter. Tail vein blood was collected and immediately used for analysis. Blood Ca^2+ concentration was measured with a Chiron Diagnostics model 634 Ca^2+/pH analyzer.

[8] = molecular target: T7, PTHR (Homo sapiens, UniProt Q03431); test: cAMP induction potency, N-terminal modifications and cyclic constraints (Tables 9, 10, 13); format: cell-based; settings: Table 9
T7 construct: expressed in transfected cells
T7 sequence (Q03431 27-593): T3 sequence (Q03431 27-593)
Description: For cAMP dose-response assays, monolayers of confluent HEK 293 cells were pre-incubated with buffer containing d-luciferin (0.5 mM) in 96 well plates at room temperature until a stable baseline level of luminescence was established (30 min). Varying concentrations of agonist were then added, and the time course of luminescence response was recorded using a Perkin Elmer plate reader following α/β-peptide addition.

[9] = molecular target: T8, PTHR1 (Homo sapiens, UniProt Q03431); test: Inhibition of PTH-induced PTHR1 cAMP signaling by bPTH(7-34) analogs; settings: Table 18; [Inhibitor] = 1 μM
T8 sequence (Q03431 27-593): T3 sequence (Q03431 27-593)

## CC[C@H](C)[C@H](NC(=O)[C@H](CCC(=O)O)NC(=O)[C@H](CO)NC(=O)[C@@H](NC(=O)[C@@H](N)CO)C(C)C)C(=O)N[C@@H](CCC(N)=O)C(=O)N[C@@H](CC(C)C)C(=O)N[C@@H](CCSC)C(=O)N[C@@H](Cc1c[nH]cn1)C(=O)N[C@@H](CC(N)=O)C(=O)N[C@@H](CC(C)C)C(=O)NCC(=O)N[C@@H](CCCCN)C(=O)N[C@@H](Cc1c[nH]cn1)C(=O)N[C@@H](CC(C)C)C(=O)N[C@@H](CC(N)=O)C(=O)N[C@@H](CO)C(=O)N[C@@H](CCSC)CC(=O)N[C@@H](CCC(=O)O)C(=O)N[C@@H](CCCNC(=N)N)C(=O)N[C@H](C(=O)N[C@@H](CCC(=O)O)CC(=O)N[C@@H](Cc1c[nH]c2ccccc12)C(=O)N[C@@H](CC(C)C)C(=O)N[C@@H](CCCNC(=N)N)C(=O)N[C@@H](CCCCN)CC(=O)N[C@@H](CCCCN)C(=O)N[C@@H](CC(C)C)C(=O)N[C@@H](CCC(N)=O)C(=O)N[C@@H](CC(=O)O)CC(=O)N[C@H](C(=O)N[C@@H](Cc1c[nH]cn1)C(=O)N[C@@H](CC(N)=O)C(=O)N[C@H](CC(N)=O)Cc1ccccc1)C(C)C)C(C)C [D5]
[1]; GR-35 cells
  Max: 43 ± 17 luminescence counts per second × 10−3
[2]
  IC50: 1.74 nM
[3]
  cAMP (hPTHR-1) Max: 1.03
[3]; Table 6
  Max: 223 ± 36 luminescence counts per second × 10^−3

## CC[C@H](C)[C@H](NC(=O)[C@H](CCC(=O)O)NC(=O)[C@H](CO)NC(=O)[C@@H](NC(=O)[C@@H](N)CO)C(C)C)C(=O)N[C@@H](CCC(N)=O)C(=O)N[C@@H](CC(C)C)C(=O)N[C@@H](CCSC)C(=O)N[C@@H](Cc1c[nH]cn1)C(=O)N[C@@H](CC(N)=O)CC(=O)N[C@@H](CC(C)C)C(=O)NCC(=O)N[C@@H](CCCCN)C(=O)N[C@H](CC(=O)N[C@@H](CC(C)C)C(=O)N[C@@H](CC(N)=O)C(=O)N[C@@H](CO)C(=O)N[C@@H](CCSC)CC(=O)N[C@@H](CCC(=O)O)C(=O)N[C@@H](CCCNC(=N)N)C(=O)N[C@H](C(=O)N[C@@H](CCC(=O)O)CC(=O)N[C@@H](Cc1c[nH]c2ccccc12)C(=O)N[C@@H](CC(C)C)C(=O)N[C@@H](CCCNC(=N)N)C(=O)N[C@@H](CCCCN)CC(=O)N[C@@H](CCCCN)C(=O)N[C@@H](CC(C)C)C(=O)N[C@@H](CCC(N)=O)C(=O)N[C@@H](CC(=O)O)CC(=O)N[C@H](C(=O)N[C@@H](Cc1c[nH]cn1)C(=O)N[C@@H](CC(N)=O)C(=O)N[C@H](CC(N)=O)Cc1ccccc1)C(C)C)C(C)C)Cc1c[nH]c2ccccc12 [D7] (H-SVSEIQLMH[β3hN]LGK[β3hW]LNS[β3hM]ERV[β3hE]WLR[β3hK]KLQ[β3hD]VHN[β3hF]-NH2)
[1]; EC50 relative to PTH(1-34)
  Fold nM PTH(1-34): 3.89
[1]; GR-35 cells
  Max: 40 ± 18 luminescence counts per second × 10−3
[1]; GR-35 cells, read-out: EC50
  EC50: 1.62 nM
[4]
  IC50: 0.24 nM
[4]; Table 4, human PTHR-1, mean ± SEM, read-out: RG -log (IC50) (converted)
  IC50: 0.234 nM
[2]
  IC50: 2.04 nM
[3]
  EC50: 0.39 nM
  cAMP (hPTHR-1) Max: 0.85
[3]; Table 6, EC50 relative to PTH(1-34)
  Fold nM PTH(1-34): 2.26
[3]; Table 6
  Max: 184 ± 18 luminescence counts per second × 10^−3
[5]
  IC50: 3.5 nM
[5]; Table 4, ratio of R^0 to RG IC50, human PTHR-1
  R^0/RG: 15
[6]
  R^0/RG: 7

## CC[C@H](C)[C@H](NC(=O)[C@H](CCC(=O)O)NC(=O)[C@H](CO)NC(=O)[C@@H](NC(=O)[C@@H](N)CO)C(C)C)C(=O)N[C@@H](CCC(N)=O)C(=O)N[C@@H](CC(C)C)C(=O)N[C@@H](CCSC)C(=O)N[C@@H](Cc1c[nH]cn1)C(=O)N[C@@H](CC(N)=O)C(=O)N[C@@H](CC(C)C)C(=O)NCC(=O)N[C@@H](CCCCN)C(=O)N[C@H]1CCC[C@@H]1C(=O)N[C@@H](CC(C)C)C(=O)N[C@@H](CC(N)=O)C(=O)N[C@@H](CO)C(=O)N[C@H]1CCC[C@@H]1C(=O)N[C@@H](CCC(=O)O)C(=O)N[C@@H](CCCNC(=N)N)C(=O)N[C@H](C(=O)N[C@H]1CNC[C@@H]1C(=O)N[C@@H](Cc1c[nH]c2ccccc12)C(=O)N[C@@H](CC(C)C)C(=O)N[C@@H](CCCNC(=N)N)C(=O)N[C@H]1CNC[C@@H]1C(=O)N[C@@H](CCCCN)C(=O)N[C@@H](CC(C)C)C(=O)N[C@@H](CCC(N)=O)C(=O)N[C@H]1CCC[C@@H]1C(=O)N[C@H](C(=O)N[C@@H](Cc1c[nH]cn1)C(=O)N[C@@H](CC(N)=O)C(=O)N[C@H]1CCC[C@@H]1C(N)=O)C(C)C)C(C)C [FcycD6, SVSEIQLMHNLGKXLNSXERVZWLRZKLQXVHNX-NH2] (H-SVSEIQLMHNLGK[X12]LNS[X12]ERV[X13]WLR[X13]KLQ[X12]VHN-{NH(1S,2S-2-CONH2-cPent)}; N-terminus assumed)
[7]
  calcemic response (blood Ca^2+ concentration): very marked activity to increase calcium blood levels
[8]
  Fold PTH: 3.2
[8]; read-out: EC50, nM (cAMP induction potency)
  EC50: 0.26 ± 0.05 nM

## FMHNLWKHLSSMERVEWLRKKLQDVHNF-NH2 [bPTH(7-34)dTrp12, reference compound]
[9]
  EC50(+)inhibitor/EC50(−)inhibitor: 60.12

## FMHNLWKWLSSMERVEWLRKKLQDVHNF-NH2 [D6 bPTH(7-34) dTrp12]
[9]
  EC50(+)inhibitor/EC50(−)inhibitor: 16.49

## LMHNLGKHLNSMERVEWLRKKLQDVHNF-NH2 [hPTH(7-34), reference compound]
[9]
  EC50(+)inhibitor/EC50(−)inhibitor: 1.60

## XMHNLWKWLSSMERVEWLRKKLQDVHNF-NH2 [D6 bPTH(7-34) dTrp12 ACPC7]
[9]
  EC50(+)inhibitor/EC50(−)inhibitor: 4.38

## XMHNLWKXLSSXERVZWLRZKLQXVHNX-NH2 [FCycD6 bPTH(7-34) dTrp12 ACPC7]
[9]
  EC50(+)inhibitor/EC50(−)inhibitor: 3.50
